# From patent publication US20040006236A1, “Diaminopropionic acid derivatives” (priority 1999, published 2004)
# Molecular target: T1, ICAM-1 binding to immobilized Mac-1 (Homo sapiens, UniProt P05107+P11215)
# T1 construct: made in house; host or cells: transfected 293 cells (Mac-1)
# Test: Mac-1/ICAM-1 screening assay (solid-phase ELISA)
# Details: read-out: Mac-1/ICAM-1 Protein-Protein Assay IC50
# How it was run: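 Competitive solid-phase ELISA: membrane Mac-1 from transfected 293 cells coated at 3 μg/mL in 20 mM Hepes pH 7.2/0.14 M NaCl/1 mM MnCl2; compounds (0.12 nM-20 μM, 1:4 series) plus 5dICAM-Ig (40 μg/mL, added) 2 h at 37° C. Bound ICAM-Ig detected with HRP anti-human IgG Fc, TMB, A450; IC50 reported.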
# T1 sequence (P05107 23-769, other chains not shown): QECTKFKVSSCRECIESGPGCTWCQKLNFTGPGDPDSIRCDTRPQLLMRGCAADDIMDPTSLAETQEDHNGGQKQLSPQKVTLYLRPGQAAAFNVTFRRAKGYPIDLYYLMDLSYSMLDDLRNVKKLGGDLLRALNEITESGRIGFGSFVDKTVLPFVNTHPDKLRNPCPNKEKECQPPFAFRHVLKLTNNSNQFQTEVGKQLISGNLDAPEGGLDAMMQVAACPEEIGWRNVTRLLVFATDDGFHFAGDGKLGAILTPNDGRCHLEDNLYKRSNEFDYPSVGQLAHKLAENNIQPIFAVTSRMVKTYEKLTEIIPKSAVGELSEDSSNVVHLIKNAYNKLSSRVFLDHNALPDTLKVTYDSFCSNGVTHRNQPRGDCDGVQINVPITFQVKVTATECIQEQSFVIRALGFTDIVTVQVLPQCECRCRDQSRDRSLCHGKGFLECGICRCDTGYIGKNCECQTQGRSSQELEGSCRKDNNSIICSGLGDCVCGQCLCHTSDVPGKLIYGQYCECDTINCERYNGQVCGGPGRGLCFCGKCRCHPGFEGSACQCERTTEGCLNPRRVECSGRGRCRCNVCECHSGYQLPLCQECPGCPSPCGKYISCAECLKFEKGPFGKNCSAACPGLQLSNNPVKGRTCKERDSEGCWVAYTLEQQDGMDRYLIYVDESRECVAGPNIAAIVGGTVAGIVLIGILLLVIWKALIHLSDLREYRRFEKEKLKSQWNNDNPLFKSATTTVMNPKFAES
row,SMILES,IC50
1,COc1ccc(C(=O)NC[C@H](NC(=O)c2ccc(C(=O)NCc3cccc(O)c3)cc2Cl)C(=O)O)cc1 [Example 135],0.061 µM
2,O=C(NC[C@H](NC(=O)c1ccc(C(=O)[C@H]2C[C@@H]2c2ccccc2)cc1Cl)C(=O)O)c1cccs1 [Example 377],0.16 µM
3,"O=C(NCc1ccc(C(=O)N[C@@H](CNC(=O)c2ccccc2)C(=O)O)c(Cl)c1)c1cccc(O)c1 [Example 364, N-[2-chloro-4-[[(3-hydroxyphenyl)carbonyl]aminomethyl]benzoyl]-3-benzoylamino-L-alanine]",0.167 µM
4,O=C1CC[C@@H](C(=O)NC[C@H](NC(=O)c2ccc(C(=O)NCc3cccc(O)c3)cc2Cl)C(=O)O)O1 [Example 96],0.056 µM
5,O=C(NCc1cccc(O)c1)c1ccc(C(=O)N[C@@H](CNC(=O)c2ccccc2Br)C(=O)O)c(Cl)c1 [Example 120],0.114 µM
6,"O=C(NCc1cccc(O)c1)c1ccc(C(=O)N[C@@H](CNS(=O)(=O)c2ccccc2)C(=O)O)c(Cl)c1 [Example 360, 3-(phenylsulfonylamino)-N-[2-chloro-4-[[[(3-hydroxyphenyl)methyl]amino]carbonyl]benzoyl]-L-alanine]",0.6 µM
7,CCCCCOc1ccc(C(=O)NC[C@H](NC(=O)c2ccc(C(=O)NCc3cccc(O)c3)cc2Cl)C(=O)O)cc1 [Example 143],0.062 µM
8,"O=C(NC[C@H](NC(=O)c1ccc(/C=C/Cc2ccccc2)cc1Cl)C(=O)O)c1cccs1 [Example 373, N-[2-chloro-4-(3-phenyl-1-propenyl)benzoyl]-3-(thiophene-2-carbonyl)amino-L-alanine]",0.068 µM
9,O=C(NCc1ccc(C(=O)N[C@@H](CNC(=O)c2ccccc2)C(=O)O)c(Cl)c1)c1ccc2[nH]ccc2c1 [Example 368],0.765 µM
10,O=C(NCc1cccc(O)c1)c1ccc(C(=O)N[C@@H](CNC(=O)[C@H](CC2CCCCC2)n2cccc2)C(=O)O)c(Cl)c1 [Example 110],0.272 µM
11,COc1cc(C(=O)NC[C@H](NC(=O)c2ccc(C(=O)NCc3cccc(O)c3)cc2Cl)C(=O)O)cc(OC)c1OC [Example 147],0.119 µM
12,"N=C(N)NC[C@H](NC(=O)c1ccc(C(=O)NCc2cccc(O)c2)cc1Cl)C(=O)O [Example 371, N-[2-chloro-4-[[[(3-hydroxyphenyl)methyl]amino]-carbonyl]benzoyl]-3-(aminoiminomethyl)amino-L-alanine]",0.073 µM
13,O=C(CCc1ccccc1)c1ccc(C(=O)N[C@@H](CNC(=O)c2cccs2)C(=O)O)c(Cl)c1 [Example 378],0.075 µM
14,O=C(NCc1ccc(C(=O)N[C@@H](CNC(=O)c2ccccc2)C(=O)O)c(Cl)c1)c1ccc2cc[nH]c2c1 [Example 369],0.403 µM
15,CC(=O)Nc1nc(C)c(S(=O)(=O)NC[C@H](NC(=O)c2ccc(C(=O)N[C@H](C)c3cccc4ccccc34)cc2Cl)C(=O)O)s1 [Example 362],1.53 µM
16,O=C(NCc1ccc(C(=O)N[C@@H](CNC(=O)c2ccccc2)C(=O)O)c(Cl)c1)c1cc(O)cc(O)c1 [Example 366],0.061 µM
17,O=C(NC[C@H](NC(=O)c1ccc(CNC(=O)c2ccccc2O)cc1Cl)C(=O)O)c1ccccc1 [Example 365],0.208 µM
18,CN(C)c1ccc(C(=O)NC[C@H](NC(=O)c2ccc(C(=O)NCc3cccc(O)c3)cc2Cl)C(=O)O)cc1 [Example 128],0.124 µM
19,O=C(NCc1cccc(O)c1)c1ccc(C(=O)N[C@@H](CNC(=O)c2ccccc2Oc2ccccc2)C(=O)O)c(Cl)c1 [Example 144],0.053 µM
20,O=C(NCc1cccc(O)c1)c1ccc(C(=O)N[C@@H](CNC(=O)C2CC2)C(=O)O)c(Cl)c1 [Example 97],0.121 µM

# More lines, now with the values ahead:
row,IC50,SMILES
1,0.007 µM,O=C(NCc1cccc(O)c1)c1ccc(C(=O)N[C@@H](CNC(=O)c2cccc(O)c2)C(=O)O)c(Cl)c1 [Example 132]
2,0.03 µM,C/C=C/C(=O)NC[C@H](NC(=O)c1ccc(C(=O)NCc2cccc(O)c2)cc1Cl)C(=O)O [Example 113]
3,0.047 µM,Cc1ccc(C(=O)NC[C@H](NC(=O)c2ccc(C(=O)NCc3cccc(O)c3)cc2Cl)C(=O)O)cc1 [Example 139]
4,0.035 µM,O=C(NCc1cccc(O)c1)c1ccc(C(=O)N[C@@H](CNC(=O)c2ccc([N+](=O)[O-])o2)C(=O)O)c(Cl)c1 [Example 149]
5,0.05 µM,COCCC1(C(=O)NC[C@H](NC(=O)c2ccc(C(=O)NCc3cccc(O)c3)cc2Cl)C(=O)O)CCCC1 [Example 102]
6,0.039 µM,O=C(NCc1cccc(O)c1)c1ccc(C(=O)N[C@@H](CNC(=O)c2cccnc2)C(=O)O)c(Cl)c1 [Example 165]
7,0.032 µM,O=C(NCc1cccc(O)c1)c1ccc(C(=O)N[C@@H](CNC(=O)c2ccccc2Cl)C(=O)O)c(Cl)c1 [Example 122]
8,0.05 µM,O=C(NCc1cccc(O)c1)c1ccc(C(=O)N[C@@H](CNC(=O)C2(c3ccccc3)CC2)C(=O)O)c(Cl)c1 [Example 99]
9,0.044 µM,Cc1noc(C)c1CCC(=O)NC[C@H](NC(=O)c1ccc(C(=O)NCc2cccc(O)c2)cc1Cl)C(=O)O [Example 111]
10,0.04 µM,Cc1cccc(C(=O)NC[C@H](NC(=O)c2ccc(C(=O)NCc3cccc(O)c3)cc2Cl)C(=O)O)n1 [Example 163]
11,0.032 µM,O=C(NCc1cccc(O)c1)c1ccc(C(=O)N[C@@H](CNC(=O)C2CCC2)C(=O)O)c(Cl)c1 [Example 100]
12,0.053 µM,CCOc1ccc(C(=O)NC[C@H](NC(=O)c2ccc(C(=O)NCc3cccc(O)c3)cc2Cl)C(=O)O)cc1 [Example 130]
13,0.048 µM,COc1ccc(/C=C/C(=O)NC[C@H](NC(=O)c2ccc(C(=O)NCc3cccc(O)c3)cc2Cl)C(=O)O)cc1 [Example 114]
14,0.035 µM,O=C(NCc1cccc(O)c1)c1ccc(C(=O)N[C@@H](CNC(=O)c2ccc(Cl)cc2)C(=O)O)c(Cl)c1 [Example 124]
15,0.043 µM,O=C(/C=C/c1cccnc1)NC[C@H](NC(=O)c1ccc(C(=O)NCc2cccc(O)c2)cc1Cl)C(=O)O [Example 115]

# System: cell-surface Mac-1 adhesion to immobilized fibrinogen (HL-60 cells)
# Test: Mac-1/Fibrinogen cell-based screening assay
# Set-up: species or system human
# Details: Homo sapiens, HL-60, HL-60 cells; read-out: Mac-1/Fgn Cell based Assay IC50
# How it was run: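 Wells coated with fibrinogen and blocked with PVP. Labeled HL-60 cells (2×10^6 cells/mL in RPMI/0.05% BSA/0.2 mM MnCl2) preincubated with DMSO-diluted compounds for 10 min at 37° C, then left to adhere 30 min at 37° C/5% CO2. Unbound cells washed off with TBS.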
row,SMILES,IC50
1,"C[C@@H](NC(=O)c1cc(Cl)c(C(=O)N[C@@H](CNC(=O)c2cccs2)C(=O)O)c(Cl)c1)c1cccc2ccccc12 [Example 346, N-[2,6-dichloro-4-[[[(1R)-1-(1-naphthalenyl)ethyl]amino]carbonyl]benzoyl]-3-[(thiophene-2-carbonyl)amino]-L-alanine]",0.004 µM
2,O=C(NCc1cccc(O)c1)c1ccc(C(=O)N[C@@H](CNC(=O)c2cccc(O)c2)C(=O)O)c(Cl)c1 [Example 132],0.0033 µM
3,Cc1ccc(C(=O)NC[C@H](NC(=O)c2c(Cl)cc(C(=O)NCc3cccc(O)c3)cc2Cl)C(=O)O)s1 [Example 358],0.0065 µM
4,O=C(NCc1cccc(O)c1)c1cc(Cl)c(C(=O)N[C@@H](CNC(=O)c2ccc(Br)s2)C(=O)O)c(Cl)c1 [Example 354],0.012 µM
5,COc1ccc(C(=O)NC[C@H](NC(=O)c2c(Cl)cc(C(=O)NCc3cccc(O)c3)cc2Cl)C(=O)O)cc1O [Example 351],0.003 µM
6,O=C(NCc1cccc(O)c1)c1cc(Cl)c(C(=O)N[C@@H](CNC(=O)c2cccc(F)c2)C(=O)O)c(Cl)c1 [Example 349],0.0062 µM
7,O=C(NCc1cccc(O)c1)c1cc(Cl)c(C(=O)N[C@@H](CNC(=O)c2cccc(O)c2)C(=O)O)c(Cl)c1 [Example 350],0.0005 µM
8,O=C(NCc1cccc(O)c1)c1cc(Cl)c(C(=O)N[C@@H](CNC(=O)c2sccc2Br)C(=O)O)c(Cl)c1 [Example 353],0.013 µM
9,C[C@@H](NC(=O)c1cc(Cl)c(C(=O)N[C@@H](CNC(=O)c2ccccc2)C(=O)O)c(Cl)c1)c1cccc2ccccc12 [Example 347],0.0131 µM
